From ChEMBL document CHEMBL3301448, “MMV Malaria Box screening against Toxoplasma gondii and Entamoeba histolytica”

test system: Toxoplasma gondii; experiment: MMV: A total of 100ul of inoculum was added to each well (parasite/cell ratio, ~10:1; final volume, 200 ul). Six hours after inoculation, nonadherent parasites were removed, and 100 ul of complete DMEM (1% penicillin-streptomycin, 3% FBS) supplemented with inhibitors at different concentrations (2-fold serial dilutions starting from 30 uM) was added to all except the negative-control wells. Positive controls, consisting of pyrimethamine (PYR) and sulfadiazine (SDZ) (20-mg/ml stocks in DMSO), were tested at a 2mg/ml final concentration. Each test was performed in triplicate.; format: functional, organism-based; conditions: 6 h

SMILES | IC50 [µM]
CN1CCN(c2ccc(Nc3c4ccccc4nc4ccccc34)cc2)CC1 | > 30
CN(C)CCCNc1c2ccccc2nc2ccccc12 | 25.8
CCN1CCCC1CNc1[nH]cnc2c3cc(Cl)ccc3nc1-2 (centres undefined) | > 30
COc1ccc(-c2c(C)nn3c(N)c(C#N)cnc23)cc1OC | > 30
CSC1=NC(=Nc2c(C)cccc2C)C2(CCC(C(C)(C)C)CC2)N1c1ccc(Cl)cc1 (centres undefined) | > 30
C[n+]1c2ccccc2nc2ccc(NCCO)cc21 | > 30
Cc1cc(C)cc(Nc2cc(C)nc3nc(C(F)(F)F)nn23)c1 | > 30
O=C(NCC(c1ccsc1)N1CCCCCC1)c1ccc(C(F)(F)F)cc1 (centres undefined) | > 30
COc1ccc(-c2cc3c(SCC(=O)Nc4cc(C(F)(F)F)ccc4Cl)nccn3n2)cc1 | > 30
Cc1ccc(-c2cc3c(SCC(=O)Nc4cc(C(F)(F)F)ccc4Cl)nccn3n2)cc1 | > 30
CCN(CC)CCNc1ncnc2c1[nH]c1ccc(Cl)cc12 | > 30
CCOC(=O)c1cnc2ccc(CC)cc2c1O | > 30
Cc1ccc(-c2cc3c(nn2)-c2ccccc2C3=O)cc1 | > 30
CCN(CC)CCNc1ccnc2cc(Cl)ccc12 | > 30
Cc1ccc(Nc2nc(-c3ccccn3)cs2)cc1 | > 30
CCCCCC(=O)N1c2ccccc2N=C2CC(c3ccc(OC)c(OC)c3)CC(O)=C2C1c1ccc(C(F)(F)F)cc1 (centres undefined) | > 30
Cc1cc(Nc2ccc3ccccc3c2)n2ncnc2n1 | > 30
Cc1cc(NCCN2CCCCC2)c2ccc3ccccc3c2n1 | > 30
COc1ccc(-n2ccnc2SCC(=O)Nc2cc(C)ccc2C)c(OC)c1 | > 30
CCN1CCN(Cc2ccc(NC(=O)c3cc4ccc5cccnc5c4[nH]3)cc2)CC1 | 3.85
COc1ccc(-c2nc(NC(=O)CS(=O)(=O)c3ccc(F)cc3)sc2C)cc1 | > 30

SMILES | IC50 [µM]
O=C(O)C1Cc2c([nH]c3ccccc23)C(c2ccc(Cl)cc2Cl)N1 (centres undefined) | > 30
Cc1ccc(N2C(=O)C3C(C2=O)C2(c4ccccc4)C(=O)C3(c3ccccc3)C(c3ccccc3)=C2c2ccccc2)cc1 (centres undefined) | > 30
CCc1c(C)c(=N)c2ccccc2n1C | > 30
COc1cccc(NC(=O)[C@H](C(C)C)n2c(=O)[nH]c3ccccc3c2=O)c1 | > 30
CCOC(=O)c1cn(CC)c2cc(N(C)CCc3ccc(OC)c(OC)c3)c(F)cc2c1=O | > 30
CCC(c1ccccc1)c1nn2c(-c3cccs3)nnc2s1 (centres undefined) | > 30
CC(C)(C)c1ccc(O)c(CNC2CCCCC2)c1 | > 30
O=[N+]([O-])c1ccc(C=NNc2nc3ccccc3[nH]2)cc1 | > 30
CCOc1cc2c(cc1OCC)C(c1cc(OC)c(O)cc1Cl)NCC2 (centres undefined) | > 30
CC1CN(C(=O)c2sc3ccccc3c2Cl)CC(C)O1 (centres undefined) | > 30
CN(C)c1ccc(C=Cc2nc(=O)c3ccccc3o2)cc1 | > 30
COc1ccc(C2=C(c3ccc(OC)cc3)C3(c4ccccc4)C(=O)C2(c2ccccc2)C2C(=O)N(c4ccc(C)cc4)C(=O)C23)cc1 (centres undefined) | > 30
CCOC(=O)c1c(NC(=O)c2ccccc2)sc2c(O)c(CN(CC)CC)ccc12 | > 30
CCOC(=O)C1=C(c2ccccc2)N=c2sc(=Cc3cc(C)n(-c4ccc(F)cc4)c3C)c(=O)n2C1c1cccc(OC)c1OC (centres undefined) | > 30
CCC1(C)CC(CCNCc2ccccc2O)(c2ccc(C)cc2)CCO1 (centres undefined) | > 30
OC(CNC1CCCCC1)Cn1c2ccccc2c2ccccc21 (centres undefined) | 8.72
Cc1cc(Nc2ccc(C)c(Cl)c2)n2nc(C(F)(F)F)nc2n1 | > 30
COc1cccc(C=Cc2nc(=O)c3ccccc3o2)c1OC | > 30
CCCN(CCC)CC(O)COc1ccccc1C(=O)Nc1ccccc1 (centres undefined) | > 30
Fc1ccc2[nH]c3c(NCCCN4CCOCC4)ncnc3c2c1 | > 30
COc1ccc(C(=O)Nc2nonc2-c2ccc(OC)c(OC)c2)cc1Cl | > 30

test system: Entamoeba histolytica; experiment: MMV: Primary screening was performed with each compound at a 30 uM final concentration and in triplicate in sealed 96-well polystyrene microtiter plates. Parasite inocula (100 ul) comprising 20000 parasites/ml were added to each well and grown at 37 degrees C in a humidified atmosphere of 5% CO2 for 72 h. Positive controls consisted of metronidazole at 1 mg/ml. The growth of E. histolytica trophozoites in each well was determined microscopically by measuring the diameters of the confluent cells in drug-containing wells relative to those in the nega- tive-control wells.; format: functional, organism-based; conditions: not given

SMILES | IC50 [µM]
CN1CCN(c2ccc(Nc3c4ccccc4nc4ccccc34)cc2)CC1 | > 30
CN(C)CCCNc1c2ccccc2nc2ccccc12 | > 30
CCN1CCCC1CNc1[nH]cnc2c3cc(Cl)ccc3nc1-2 (centres undefined) | > 30
COc1ccc(-c2c(C)nn3c(N)c(C#N)cnc23)cc1OC | > 30
CSC1=NC(=Nc2c(C)cccc2C)C2(CCC(C(C)(C)C)CC2)N1c1ccc(Cl)cc1 (centres undefined) | > 30
C[n+]1c2ccccc2nc2ccc(NCCO)cc21 | > 30
Cc1cc(C)cc(Nc2cc(C)nc3nc(C(F)(F)F)nn23)c1 | > 30
O=C(NCC(c1ccsc1)N1CCCCCC1)c1ccc(C(F)(F)F)cc1 (centres undefined) | > 30
COc1ccc(-c2cc3c(SCC(=O)Nc4cc(C(F)(F)F)ccc4Cl)nccn3n2)cc1 | > 30
Cc1ccc(-c2cc3c(SCC(=O)Nc4cc(C(F)(F)F)ccc4Cl)nccn3n2)cc1 | > 30
CCN(CC)CCNc1ncnc2c1[nH]c1ccc(Cl)cc12 | > 30
CCOC(=O)c1cnc2ccc(CC)cc2c1O | > 30
Cc1ccc(-c2cc3c(nn2)-c2ccccc2C3=O)cc1 | > 30
CCN(CC)CCNc1ccnc2cc(Cl)ccc12 | > 30
Cc1ccc(Nc2nc(-c3ccccn3)cs2)cc1 | > 30
CCCCCC(=O)N1c2ccccc2N=C2CC(c3ccc(OC)c(OC)c3)CC(O)=C2C1c1ccc(C(F)(F)F)cc1 (centres undefined) | > 30
Cc1cc(Nc2ccc3ccccc3c2)n2ncnc2n1 | > 30
Cc1cc(NCCN2CCCCC2)c2ccc3ccccc3c2n1 | > 30
COc1ccc(-n2ccnc2SCC(=O)Nc2cc(C)ccc2C)c(OC)c1 | > 30
CCN1CCN(Cc2ccc(NC(=O)c3cc4ccc5cccnc5c4[nH]3)cc2)CC1 | > 30
COc1ccc(-c2nc(NC(=O)CS(=O)(=O)c3ccc(F)cc3)sc2C)cc1 | > 30

SMILES | IC50 [µM]
O=C(O)C1Cc2c([nH]c3ccccc23)C(c2ccc(Cl)cc2Cl)N1 (centres undefined) | > 30
Cc1ccc(N2C(=O)C3C(C2=O)C2(c4ccccc4)C(=O)C3(c3ccccc3)C(c3ccccc3)=C2c2ccccc2)cc1 (centres undefined) | > 30
CCc1c(C)c(=N)c2ccccc2n1C | > 30
COc1cccc(NC(=O)[C@H](C(C)C)n2c(=O)[nH]c3ccccc3c2=O)c1 | > 30
CCOC(=O)c1cn(CC)c2cc(N(C)CCc3ccc(OC)c(OC)c3)c(F)cc2c1=O | > 30
CCC(c1ccccc1)c1nn2c(-c3cccs3)nnc2s1 (centres undefined) | > 30
CC(C)(C)c1ccc(O)c(CNC2CCCCC2)c1 | > 30
O=[N+]([O-])c1ccc(C=NNc2nc3ccccc3[nH]2)cc1 | > 30
CCOc1cc2c(cc1OCC)C(c1cc(OC)c(O)cc1Cl)NCC2 (centres undefined) | > 30
CC1CN(C(=O)c2sc3ccccc3c2Cl)CC(C)O1 (centres undefined) | > 30
CN(C)c1ccc(C=Cc2nc(=O)c3ccccc3o2)cc1 | > 30
COc1ccc(C2=C(c3ccc(OC)cc3)C3(c4ccccc4)C(=O)C2(c2ccccc2)C2C(=O)N(c4ccc(C)cc4)C(=O)C23)cc1 (centres undefined) | > 30
CCOC(=O)c1c(NC(=O)c2ccccc2)sc2c(O)c(CN(CC)CC)ccc12 | > 30
CCOC(=O)C1=C(c2ccccc2)N=c2sc(=Cc3cc(C)n(-c4ccc(F)cc4)c3C)c(=O)n2C1c1cccc(OC)c1OC (centres undefined) | > 30
CCC1(C)CC(CCNCc2ccccc2O)(c2ccc(C)cc2)CCO1 (centres undefined) | > 30
OC(CNC1CCCCC1)Cn1c2ccccc2c2ccccc21 (centres undefined) | > 30
Cc1cc(Nc2ccc(C)c(Cl)c2)n2nc(C(F)(F)F)nc2n1 | > 30
COc1cccc(C=Cc2nc(=O)c3ccccc3o2)c1OC | > 30
CCCN(CCC)CC(O)COc1ccccc1C(=O)Nc1ccccc1 (centres undefined) | > 30
Fc1ccc2[nH]c3c(NCCCN4CCOCC4)ncnc3c2c1 | > 30
COc1ccc(C(=O)Nc2nonc2-c2ccc(OC)c(OC)c2)cc1Cl | > 30
